Measured values from ChEMBL document CHEMBL1129872, “GENISTEIN AND FLUORINATED ANALOGS SUPPRESS AGONIST-INDUCED AIRWAY SMOOTH MUSCLE CONTRACTION” (Bioorg Med Chem Lett, 1997).

Columns and labels:
Type in all cases: functional
Cavia porcellus [1] = species on record: Cavia porcellus; test: The inhibitory activity is expressed as percentage of the maximal contraction induced by Ach 3 mM at 3*10e-4 M
Cavia porcellus [2] = species on record: Cavia porcellus; test: The inhibitory activity is expressed as percentage of the maximal contraction induced by histamine
Cavia porcellus [3] = species on record: Cavia porcellus; test: The inhibitory activity is expressed as percentage of the maximal contraction induced by 30 mM KCl dependent on extracellular Ca+2 influx at 10e-4 M
Cavia porcellus [4] = species on record: Cavia porcellus; test: The inhibitory activity is expressed as percentage of the maximal contraction induced by KCl
Cavia porcellus [5] = species on record: Cavia porcellus; test: The -logEC50 value of genistein on ACh-precontracted rings, where EC50 is the concentration causing 50% relaxation
Cavia porcellus [6] = species on record: Cavia porcellus; test: The inhibitory activity is expressed as percentage of the maximal contraction induced by 30 mM KCl dependent on extracellular Ca+2 influx at 10e-5 M

| EC50 (Cavia porcellus [5]) [µM] | Structure (SMILES) | Max effect (Cavia porcellus [1]) | Max effect (Cavia porcellus [2]) | Max effect (Cavia porcellus [3]) | Max effect (Cavia porcellus [4]) | Max effect (Cavia porcellus [6]) |
| --- | --- | --- | --- | --- | --- | --- |
|  | O=c1c(-c2ccc(F)c(F)c2)coc2cc(O)cc(O)c12 | 33 |  |  |  |  |
|  | O=c1c(-c2ccc(F)cc2F)coc2cc(O)cc(O)c12 | 36 | 73 | 41 | 78 |  |
|  | O=c1c(-c2ccc(F)cc2)coc2cc(O)cc(O)c12 | 26 | 69 | 36 | 71 |  |
| 0.0759 | CC(C)(C)NCC(O)c1ccc(O)c(CO)c1 (configuration not stated) [ALBUTEROL] |  |  |  |  |  |
| 195 | O=c1c(-c2ccc(O)cc2)coc2cc(O)cc(O)c12 [GENISTEIN] | 66 | 98 | 79 | 88 | 35 |

| Structure (SMILES) | EC50 (Cavia porcellus [5]) [µM] | Max effect (Cavia porcellus [1]) | Max effect (Cavia porcellus [2]) | Max effect (Cavia porcellus [3]) | Max effect (Cavia porcellus [4]) | Max effect (Cavia porcellus [6]) |
| --- | --- | --- | --- | --- | --- | --- |
| Cn1c(=O)c2[nH]cnc2n(C)c1=O [AMINOPHYLLINE] | 525 |  |  |  |  |  |
